Data as given in paper PMC7251074, “Identification of Anti-tuberculosis Compounds From Aurone Analogs” (Frontiers in Microbiology, 2020).
Values after ≈ are worked out from the molar mass of the structure shown. Read-outs that look alike come from different tables or passages of the source.

What was measured:
[1] = tested on: intracellular Mtb in THP-1 cell derived macrophages; experiment: Efficacy against intracellular Mtb in THP-1 derived macrophages; assay type: cell-based, Mycobacterium tuberculosis; settings: for Mtb CFU compared to the initial intracellular Mtb load (0 h) / CFUs of intracellular Mtb at 48 h compared to before treatment (0 h): 48 h; for CFUs of intracellular Mtb at 48 h compared to before treatment (0 h): 25 and 50 μM
Experimental: Human monocyte THP-1 cells were seeded at 5 × 10^4 cells / well in 96-well tissue culture black plates with clear bottoms. PMA was used to induce the monocytes to develop into macrophages for 3 days before infection. The tdTomato-expressing Mtb strain was employed for cell infection at an MOI = 20. After a 3 h incubation of the Mtb strain with THP-1 cells, extracellular bacteria were removed by washing twice with the cell culture medium. 200 μL of cell culture medium containing either 25 or 50 μM aurones or 1X MICs of amikacin (AMI, 1 μg/mL), ethambutol (ETH, 0.5 μg/mL), RIF (0.4 μg/mL) and isoniazid (INH) (0.5 μg/mL) was added to each well in triplicate and incubated for 48 h. Infected cells treated with the vehicle buffer served as negative controls. Cells were then lysed and plated for CFU counting.
FIGURE 2 Aurones inhibit intracellular Mtb. (A) Growth ratios of samples treated with the aurone leads or control drugs compared to the growth ratio of untreated control. Growth ratio of each sample = FI of each sample at 48 h / FI of the same sample at 0 h. (B) CFUs of samples treated with the aurone leads or control drugs compared to the CFU of untreated control at 0 and 48 h. 25 and 50 μM of the aurone leads were incubated with the infected cells (MOI = 20) after removing extracellular bacteria. Positive controls: AMI (1 μg/mL), ETH (0.5 μg/mL), INH (0.5 μg/mL), and RIF (0.4 μg/mL). Data are means of three independent experiments ± S.D. *P < 0.05, **P < 0.01, ****P < 0.0001.

[2] = target: Mtb chorismate synthase (Mtb-Cs, Rv2540c) (Mycobacterium tuberculosis, UniProt P9WPY1); experiment: Mtb chorismate synthase activity assay (coupled, Pi production with MESG/PNP); assay type: biochemical; settings: Pi production at A360, EPSP, FMN 0.04 mM, NADH 0.3 mM
Mtb CDC1551 = experiment: Resazurin microtiter assay (REMA) for MICs; assay type: cell-based; settings: Mycobacterium tuberculosis, CDC1551, 168 h
[3] = tested on: tdTomato-expressing Mtb in the lungs of BALB/c mice; assay type: in vivo, Mycobacterium tuberculosis; settings: after a 12-days treatment
Vero cells = experiment: MTT cell viability cytotoxicity assay, Vero; assay type: cell-based, primate; settings: for SI (IC50/MIC) Vero: IC50 Vero / MIC Mtb, 2880 min; for IC50: Primates, Vero, 48 h, read-out: IC50 Vero
HepG2 cells = experiment: MTT cell viability cytotoxicity assay, HepG2; assay type: cell-based, human; settings: for IC50: Homo sapiens, HepG2, 48 h, read-out: IC50 HepG2; for SI (IC50/MIC) HepG2: IC50 HepG2 / MIC Mtb, 2880 min; for selectivity index: on all three cell lines (HepG2, Vero, THP-1)
Experimental: Cytotoxicities of the aurones were evaluated in Vero cells (ATCC), HepG2 (ATCC), and THP-1 cells (ATCC) using the standard microculture tetrazolium (MTT) cell viability assay. Media used for the Vero cells was DMEM supplemented with 10% calf serum; for HepG2 cells the media used was DMEM supplemented with 20% calf serum; and for THP-1 cells the media used was RPMI-1640 supplemented with 10% calf serum (HyClone Cosmic Calf, GE Lifesciences). Cells were seeded into a 96-well plate. For THP-1 cells, phorbol-12-myristate-13-acetate (PMA) was used to induce the monocytes to develop into macrophages for 3 days before the cytotoxicity assay. A series of two-fold dilutions of aurones or RIF were added into the cell culture media in microplates to determine the concentration that eliminated 50% of eukaryotic cell growth in a 2-days incubation. Cells without drug treatment were incubated with the vehicle buffer and served as negative controls (100% viable). Cells treated with digitonin (100 μg/mL) served as the positive controls. After a 2-days incubation, 10 μL of MTT reagent was loaded into each well, and incubated for 3 h at 37°C. Hundred microliter of detergent solution was then added into each well and the 96-well plates were incubated for 2 h. Absorbance of each sample in the 96-well plates was measured at […]. Viability of each drug-treated sample was calculated as the absorbance of the sample divided by the absorbance of the untreated sample multiplied by 100.
We determined MICs of the top six aurone leads (AA2A, AA8, 9501, 9504, 9505, and 9510) using the standard resazurin microtiter assay (REMA) ([Palomino et al., 2002]). The MIC was defined as the lowest drug concentration that prevented the color change of resazurin from blue to pink. The MICs for 9504, 9505, 9501, 9510, AA2A, and AA8 were 6.25, 12.5, 25, 25, 25, and 50 μM, respectively (Table 2). We evaluated the cytotoxic effects of aurones to human liver cells HepG2, primate kidney Vero cells and human monocyte THP-1 cells after a 2-days incubation using the microculture tetrazolium (MTT) cell viability assay. Concentration gradients of the selected aurones or RIF (as a control) were incubated with the three cell lines. We calculated half maximal inhibitory concentration (IC50) of aurones on these three cell lines. By comparing MICs with IC50, we calculated the selectivity index (SI) for each aurone lead as […].

[4] = tested on: tdTomato-expressing Mtb CDC1551 strain; experiment: microbe, parasite or virus in culture; assay type: cell-based, Mycobacterium tuberculosis; settings: aurones at 100 μM, 3 days co-incubation, tdTomato fluorescence intensity; for inhibition at 100 µM: Mycobacterium tuberculosis, 72 h, read-out: Inhibitory rate
THP-1 cells = experiment: MTT cell viability cytotoxicity assay, THP-1 derived macrophages; assay type: cell-based, human; settings: for IC50: Homo sapiens, THP-1, 48 h, read-out: IC50 THP-1; for SI (IC50/MIC) THP-1: IC50 THP-1 / MIC Mtb, 2880 min
[5] = tested on: purine nucleoside phosphorylase (PNP); experiment: Purine nucleoside phosphorylase counter-assay; assay type: biochemical; settings: PNP 0.2 U, MESG 50 μM, potassium phosphate 10 mM
Experimental: FIGURE 4 AA2A and 9504 inhibit Mtb-Cs activity. (A) Assay to measure the ability of aurones to inhibit Cs of Mtb. (B) SDS-PAGE analysis of extracted rRv3227 (left) and rRv2540c (right). Lane 1: marker (PageRuler^M Unstained); 2: crude protein extracts; 3–5: samples eluted from Ni-column by 125, 250, and 500 mM imidazole, respectively; 6: the concentrated proteins eluted by 500 mM imidazole. (C) Evaluation of 9501, 9504, 9505, and 9510 inhibitory effects on Mtb-Cs activity. (D) Evaluation of AA2A and AA8 inhibitory effects on Mtb-Cs activity. Data are means of three independent experiments ± S.D. The reaction mixture comprised Mtb-Cs, various concentrations of aurone leads, EPSP ([…]), FMN (0.04 mM) and NADH (0.3 mM). The production of chorismate from the enzymatic reaction was determined by measuring Pi production using MESG (0.2 mM) and PNP (1 U). […] The reaction mixture comprised PNP (0.2 U), MESG (50 μM), potassium phosphate (10 mM), and aurones (50 μM for 9501, 9504, 9505, and 9510; 200 μM for AA2A and AA8). No significant differences (P > 0.05) were identified between each of the aurone-treated group and the positive control group. Data are means of three independent experiments ± S.D.

[6] = MTT cell viability cytotoxicity assay, Vero; assay type: cell-based, primate; settings: monkey, vero cells; MTT, 2-days incubation; read-out: IC50 Vero
Mtb = tested on: Mtb; parameters: method as in Jayaram et al., 2003; settings: 10 mg/kg, 12 daily oral doses; ref Jayaram et al., 2003; cited from earlier work
[7] = REMA, 7 days incubation, lowest concentration preventing resazurin colour change, read-out: MIC
[8] = MTT, 2-days incubation, PMA-induced macrophages

Mtb chorismate synthase (Mtb-Cs, Rv2540c), sequence (P9WPY1 whole entry): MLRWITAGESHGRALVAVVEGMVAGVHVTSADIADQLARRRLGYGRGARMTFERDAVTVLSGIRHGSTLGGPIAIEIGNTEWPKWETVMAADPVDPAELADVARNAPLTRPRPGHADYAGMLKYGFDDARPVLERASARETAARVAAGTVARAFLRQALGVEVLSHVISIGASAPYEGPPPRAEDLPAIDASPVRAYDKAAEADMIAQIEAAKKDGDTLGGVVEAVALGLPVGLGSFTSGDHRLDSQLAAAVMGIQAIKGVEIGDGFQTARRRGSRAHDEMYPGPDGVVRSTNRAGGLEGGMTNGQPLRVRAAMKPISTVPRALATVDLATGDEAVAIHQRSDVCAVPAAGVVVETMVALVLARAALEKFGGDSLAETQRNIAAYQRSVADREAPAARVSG

SMILES	Mtb CFU compared to the initial intracellular Mtb load (0 h) ([1]; 50 μM)	CFUs of intracellular Mtb at 48 h compared to before treatment (0 h) [1]	IC50 [2] [µM]	MIC (Mtb CDC1551; [7]) [µM]	Mtb load in the lungs of infected mice [3]	SI (IC50/MIC) Vero (Vero cells)	IC50 (Vero cells; MTT, 2-days incubation) [µM]	IC50 (HepG2 cells; MTT, 2-days incubation) [µM]	SI (IC50/MIC) HepG2 (HepG2 cells)	inhibition at 100 µM [4] [%]	IC50 (THP-1 cells; [8]) [µM]	SI (IC50/MIC) THP-1 (THP-1 cells)	Inhibitory rate [4] [%]	selectivity index (HepG2 cells)	inhibition of PNP ([5]; aurone 50 μM)	other results
CC(=O)N1C(=Cc2ccccc2Br)C(=O)c2ccccc21 [AA2A]	reduced Mtb CFU significantly	did not increase	24.1 ± 0.55	25 (≈ 8.55 µg/mL)	significantly reduced	5.13	128	118	4.71	85.95 ± 0.38	110	4.39				inhibition of PNP ([5]; aurone 200 μM): do not inhibit
CC(=O)N1/C(=C\c2ccccc2O)C(=O)c2ccccc21 [AA3A]													41.32 ± 9.99			
CC(=O)N1/C(=C\c2ccc(CO)o2)C(=O)c2ccccc21 [AA4A]													66.18 ± 0.98			
CC(=O)N1/C(=C\c2ccc[nH]2)C(=O)c2ccccc21 [AA5A]													69.93 ± 10.09			
O=C1C(=Cc2ccccc2)Nc2ccccc21 [AA8]		did not increase	50.3 ± 8.61	50 (≈ 11.1 µg/mL)	significantly reduced	5.58	279	399	7.99	71.9 ± 2	504	10.08				inhibition of PNP ([5]; aurone 200 μM): do not inhibit
CN(C)c1ccc(C=C2Oc3cc(Cl)ccc3C2=O)cc1 [Aurone 9501]	reduced Mtb CFU significantly	did not increase	5.36 ± 1.65		significantly reduced	44.50			15.85	85 ± 2.24		12.98		> 10	do not inhibit	MIC (Mtb CDC1551): 25 µM (≈ 7.49 µg/mL); CC50 at 48 h [6]: 1110 µM; IC50 (HepG2 cells): 396 µM; IC50 (THP-1 cells): 325 µM
CN(C)c1ccc(C=C2Oc3cc(Br)ccc3C2=O)cc1 [Aurone 9504]	reduced Mtb CFU significantly	did not increase	17.1 ± 1.07		significantly reduced	87.98			126.40	88.29 ± 0.16		100.50		> 10	do not inhibit	MIC (Mtb CDC1551): 6.25 µM (≈ 2.15 µg/mL); IC50 (Vero cells): 550 µM; IC50 (HepG2 cells): 790 µM; IC50 (THP-1 cells): 628 µM
CN(C)c1ccc(C=C2Oc3c(Br)cccc3C2=O)cc1 [Aurone 9505]	reduced Mtb CFU significantly	did not increase	24.5 ± 9.44	12.5 (≈ 4.3 µg/mL)		38.34	479	29.3	2.34	84.4 ± 2.99	219	17.56			do not inhibit	Mtb CFU compared to the initial intracellular Mtb load (0 h) ([1]; 25 μM): reduced Mtb CFU significantly
Cc1cc2c(cc1C)C(=O)C(=Cc1ccc(N(C)C)cc1)O2 [Aurone 9510]			15.1 ± 1.68	25 (≈ 7.33 µg/mL)		35.69	892	451	18.06	83.1 ± 1.62	693	27.71		> 10	do not inhibit	intracellular Mtb replication ([1]; 25 μM, at 48 h): did not fully inhibit
CO[C@H]1/C=C/O[C@@]2(C)Oc3c(C)c(O)c4c(O)c(c(/C=N/N5CCN(C)CC5)c(O)c4c3C2=O)NC(=O)/C(C)=C\C=C\[C@H](C)[C@H](O)[C@@H](C)[C@@H](O)[C@@H](C)[C@H](OC(C)=O)[C@@H]1C [RIF, rifampicin, reference compound]				0.5 (≈ 0.411 µg/mL)			22.8	4.56			15					CFU reduction in bacterial burden in the lungs (Mtb): ~1 log10 CFU
